# Species: Rattus norvegicus
# Assay: DrugMatrix - Regimen: Daily Repeat
# Type: toxicity, organism-based, Sprague-Dawley
# Parameters: regimen Daily Repeat, gender Male, age 6-8 weeks
# Conditions: in vivo, po, route oral GAVAGE, vehicle 100 % WATER; for ABSOLUTE BASOPHIL / ABSOLUTE EOSINOPHIL / ABSOLUTE LYMPHOCYTE / ABSOLUTE MONOCYTE / ABSOLUTE SEGMENTED NEUTROPHIL / BASOPHIL / EOSINOPHIL / ERYTHROCYTE COUNT / HEMATOCRIT / HEMOGLOBIN / LEUKOCYTE COUNT / LYMPHOCYTE / MEAN CORPUSCULAR HEMOGLOBIN / MEAN CORPUSCULAR HEMOGLOBIN CONCENTRATION / MEAN CORPUSCULAR VOLUME / MONOCYTE / NEUTROPHIL / NUCLEATED RED BLOOD CELLS / PLATELET COUNT: tissue Blood; for ALANINE AMINOTRANSFERASE / ALBUMIN / ALKALINE PHOSPHATASE / ASPARTATE AMINOTRANSFERASE / BLOOD UREA NITROGEN / CARBON DIOXIDE / CHLORIDE / CHOLESTEROL / CREATINE PHOSPHOKINASE / CREATININE / GLUCOSE / LACTATE DEHYDROGENASE / LIPASE / PHOSPHORUS / POTASSIUM / SODIUM / TOTAL BILIRUBIN / TOTAL PROTEIN / URIC ACID: tissue Plasma
# [1] = 0 mg/kg, 72 h, dose level Control, time 3 day
# [2] = 0 mg/kg, 120 h, dose level Control, time 5 day
# [3] = 30 mg/kg, 72 h, dose level Low, time 3 day
compound,measurement,setting,value
CC1COc2c(N3CCN(C)CC3)c(F)cc3c(=O)c(C(=O)O)cn1c23 (centres undefined) [OFLOXACIN],ABSOLUTE BASOPHIL,[1],0 CELLS/uL
same,ABSOLUTE EOSINOPHIL,[1],0 CELLS/uL
same,ABSOLUTE LYMPHOCYTE,[1],10386.33 CELLS/uL
same,ABSOLUTE MONOCYTE,[1],88.5 CELLS/uL
same,ABSOLUTE SEGMENTED NEUTROPHIL,[1],1008.5 CELLS/uL
same,BASOPHIL,[1],0%
same,EOSINOPHIL,[1],0%
same,ERYTHROCYTE COUNT,[1],5.16 x10E6/uL
same,HEMATOCRIT,[1],32.43%
same,HEMOGLOBIN,[1],12.98 G/DL
same,LEUKOCYTE COUNT,[1],11.48 x10E3/uL
same,LYMPHOCYTE,[1],92.33%
same,MEAN CORPUSCULAR HEMOGLOBIN,[1],25.23 pg
same,MEAN CORPUSCULAR HEMOGLOBIN CONCENTRATION,[1],40.08 G/DL
same,MEAN CORPUSCULAR VOLUME,[1],62.95 fL
same,MONOCYTE,[1],0.67%
same,NEUTROPHIL,[1],7%
same,NUCLEATED RED BLOOD CELLS,[1],0 /100WBC
same,PLATELET COUNT,[1],1016.67 x10E3/uL
same,ALANINE AMINOTRANSFERASE,[1],62.17 u/L
same,ALBUMIN,[1],3.95 G/DL
same,ALKALINE PHOSPHATASE,[1],363.5 u/L
same,ASPARTATE AMINOTRANSFERASE,[1],118 u/L
same,BLOOD UREA NITROGEN,[1],14.5 mg/dL
same,CARBON DIOXIDE,[1],22.83 mmol/L
same,CHLORIDE,[1],100.67 MEQ/L
same,CHOLESTEROL,[1],66 mg/dL
same,CREATINE PHOSPHOKINASE,[1],1308.83 u/L
same,CREATININE,[1],0.22 mg/dL
same,GLUCOSE,[1],187.5 mg/dL
same,LACTATE DEHYDROGENASE,[1],380.17 u/L
same,LIPASE,[1],16.17 u/L
same,PHOSPHORUS,[1],14.27 mg/dL
same,POTASSIUM,[1],6.8 MEQ/L
same,SODIUM,[1],142.53 MEQ/L
same,TOTAL BILIRUBIN,[1],0.2 mg/dL
same,TOTAL PROTEIN,[1],5.68 G/DL
same,URIC ACID,[1],2.87 mg/dL
same,ABSOLUTE BASOPHIL,[2],0 CELLS/uL
same,ABSOLUTE EOSINOPHIL,[2],80 CELLS/uL
same,ABSOLUTE LYMPHOCYTE,[2],13301.33 CELLS/uL
same,ABSOLUTE MONOCYTE,[2],180.83 CELLS/uL
same,ABSOLUTE SEGMENTED NEUTROPHIL,[2],1187.83 CELLS/uL
same,BASOPHIL,[2],0%
same,EOSINOPHIL,[2],0.5%
same,ERYTHROCYTE COUNT,[2],5.54 x10E6/uL
same,HEMATOCRIT,[2],35.65%
same,HEMOGLOBIN,[2],14.22 G/DL
same,LEUKOCYTE COUNT,[2],14.75 x10E3/uL
same,LYMPHOCYTE,[2],90.67%
same,MEAN CORPUSCULAR HEMOGLOBIN,[2],25.65 pg
same,MEAN CORPUSCULAR HEMOGLOBIN CONCENTRATION,[2],39.88 G/DL
same,MEAN CORPUSCULAR VOLUME,[2],64.35 fL
same,MONOCYTE,[2],1%
same,NEUTROPHIL,[2],7.83%
same,NUCLEATED RED BLOOD CELLS,[2],0.17 /100WBC
same,PLATELET COUNT,[2],1285.33 x10E3/uL
same,ALANINE AMINOTRANSFERASE,[2],51.67 u/L
same,ALBUMIN,[2],4.08 G/DL
same,ALKALINE PHOSPHATASE,[2],391.5 u/L
same,ASPARTATE AMINOTRANSFERASE,[2],99.5 u/L
same,BLOOD UREA NITROGEN,[2],15.5 mg/dL
same,CARBON DIOXIDE,[2],28.33 mmol/L
same,CHLORIDE,[2],101.83 MEQ/L
same,CHOLESTEROL,[2],67.83 mg/dL
same,CREATINE PHOSPHOKINASE,[2],771.33 u/L
same,CREATININE,[2],0.23 mg/dL
same,GLUCOSE,[2],156.5 mg/dL
same,LACTATE DEHYDROGENASE,[2],544.33 u/L
same,LIPASE,[2],10.17 u/L
same,PHOSPHORUS,[2],12.03 mg/dL
same,POTASSIUM,[2],6.81 MEQ/L
same,SODIUM,[2],144.13 MEQ/L
same,TOTAL BILIRUBIN,[2],0.22 mg/dL
same,TOTAL PROTEIN,[2],6 G/DL
same,URIC ACID,[2],2.18 mg/dL
same,ABSOLUTE BASOPHIL,[3],0 CELLS/uL
same,ABSOLUTE EOSINOPHIL,[3],95.33 CELLS/uL
same,ABSOLUTE LYMPHOCYTE,[3],12358.67 CELLS/uL
same,ABSOLUTE MONOCYTE,[3],136.33 CELLS/uL
same,ABSOLUTE SEGMENTED NEUTROPHIL,[3],1043 CELLS/uL
same,BASOPHIL,[3],0%
same,EOSINOPHIL,[3],0.67%
same,ERYTHROCYTE COUNT,[3],5.52 x10E6/uL
same,HEMATOCRIT,[3],36.03%
same,HEMOGLOBIN,[3],13.97 G/DL
same,LEUKOCYTE COUNT,[3],13.63 x10E3/uL
same,LYMPHOCYTE,[3],90.67%
same,MEAN CORPUSCULAR HEMOGLOBIN,[3],25.4 pg
same,MEAN CORPUSCULAR HEMOGLOBIN CONCENTRATION,[3],38.77 G/DL
same,MEAN CORPUSCULAR VOLUME,[3],65.33 fL
same,MONOCYTE,[3],1%
same,NEUTROPHIL,[3],7.67%
same,NUCLEATED RED BLOOD CELLS,[3],0 /100WBC
same,PLATELET COUNT,[3],1082 x10E3/uL
same,ALANINE AMINOTRANSFERASE,[3],46.67 u/L
same,ALBUMIN,[3],4.03 G/DL
same,ALKALINE PHOSPHATASE,[3],420.67 u/L
same,ASPARTATE AMINOTRANSFERASE,[3],75 u/L
same,BLOOD UREA NITROGEN,[3],13.33 mg/dL
same,CARBON DIOXIDE,[3],28 mmol/L
same,CHLORIDE,[3],100.33 MEQ/L
same,CHOLESTEROL,[3],76.33 mg/dL
same,CREATINE PHOSPHOKINASE,[3],165.33 u/L
same,CREATININE,[3],0.19 mg/dL
same,GLUCOSE,[3],159 mg/dL
same,LACTATE DEHYDROGENASE,[3],114 u/L
same,LIPASE,[3],10.67 u/L
same,PHOSPHORUS,[3],13.07 mg/dL
same,POTASSIUM,[3],6.69 MEQ/L
same,SODIUM,[3],143.73 MEQ/L
same,TOTAL BILIRUBIN,[3],0.2 mg/dL
same,TOTAL PROTEIN,[3],5.87 G/DL
same,URIC ACID,[3],1.23 mg/dL

# Reference: ChEMBL document CHEMBL3885881, “DrugMatrix”
